Data as given in ChEMBL document CHEMBL1201862, “PubChem BioAssay data set” (2004).
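Dose response: 5 concentrations. Exposure: 48 h. Format: 96-well plates. Endpoint: linear interpolation; highest concentration if not reached. GI50 = concentration required for 50% inhibition of growth.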 Active and inactive are the calls of the source. Rule as the data show it: active = GI50 up to about 1.1 µM and inactive = higher.

Experiments:
Assay in all cases: growth of human tumour cells (NCI), 48 h
A549 = tested on: A549
CAKI-1 = tested on: CAKI-1
COLO 205 = tested on: COLO 205
HCT-116 = tested on: HCT-116
HOP-62 = tested on: HOP-62
KM12 = tested on: KM12
LOX IMVI = tested on: LOX IMVI
MCF7 = tested on: MCF7
MDA-MB-435 = tested on: MDA-MB-435
MOLT-4 = tested on: MOLT-4
NCI-H522 = tested on: NCI-H522
NCI/ADR-RES = tested on: NCI/ADR-RES
OVCAR-3 = tested on: OVCAR-3
OVCAR-5 = tested on: OVCAR-5
RPMI-8226 = tested on: RPMI-8226
SF-268 = tested on: SF-268
SK-MEL-2 = tested on: SK-MEL-2
SW-620 = tested on: SW-620
UACC-257 = tested on: UACC-257
SR = tested on: SR

Row | SMILES | GI50 (A549) | GI50 (CAKI-1) | GI50 (COLO 205) | GI50 (HCT-116) | GI50 (HOP-62) | GI50 (KM12) | GI50 (LOX IMVI) | GI50 (MCF7) | GI50 (MDA-MB-435) | GI50 (MOLT-4) | GI50 (NCI-H522) | GI50 (NCI/ADR-RES) | GI50 (OVCAR-3) | GI50 (OVCAR-5) | GI50 (RPMI-8226) | GI50 (SF-268) | GI50 (SK-MEL-2) | GI50 (SW-620) | GI50 (UACC-257) | GI50 (SR)
1 | O=C(Nc1ccc(N2C(=O)CSC2c2ccccc2O)cc1)c1ccc(N2C(=O)CSC2c2ccccc2O)cc1 (stereo unspecified) | 40.7 µM (inactive) | > 100 µM (inactive) | > 100 µM (inactive) | 88.3 µM (inactive) | 32.4 µM (inactive) | > 100 µM (inactive) | 75.3 µM (inactive) | 46.3 µM (inactive) | 61 µM (inactive) | > 100 µM (inactive) | 55.7 µM (inactive) | > 100 µM (inactive) | 84.7 µM (inactive) | 83.6 µM (inactive) | 57.9 µM (inactive) | 95.1 µM (inactive) | 84.7 µM (inactive) | > 100 µM (inactive) | > 100 µM (inactive) | –
2 | CC1(C)CC(=O)C(CC(C(=O)C(=O)Nc2cc(C(F)(F)F)ccc2Cl)C(=O)c2ccco2)C(=O)C1 (stereo unspecified) | > 100 µM (inactive) | > 100 µM (inactive) | > 100 µM (inactive) | > 100 µM (inactive) | – | > 100 µM (inactive) | > 100 µM (inactive) | > 100 µM (inactive) | > 100 µM (inactive) | > 100 µM (inactive) | > 100 µM (inactive) | > 100 µM (inactive) | > 100 µM (inactive) | > 100 µM (inactive) | > 100 µM (inactive) | > 100 µM (inactive) | > 100 µM (inactive) | > 100 µM (inactive) | > 100 µM (inactive) | –
3 | CCN(CC)C(=S)SNCc1ccc(S(N)(=O)=O)cc1 | 12.3 µM (inactive) | 14.7 µM (inactive) | 14.6 µM (inactive) | 13.2 µM (inactive) | 15.4 µM (inactive) | 14.9 µM (inactive) | 13.5 µM (inactive) | – | 19.5 µM (inactive) | 8.97 µM (inactive) | 0.0191 µM (active) | 18.9 µM (inactive) | 14.4 µM (inactive) | 14 µM (inactive) | 2.93 µM (inactive) | 12.9 µM (inactive) | 16.6 µM (inactive) | 20 µM (inactive) | 17.1 µM (inactive) | 1.28 µM (inactive)
4 | CN(C)C1(N(C)C)Oc2c(c(=O)n(C)c(=O)n2C)C(c2ccc(C(F)(F)F)cc2)C1(F)F (stereo unspecified) | > 100 µM (inactive) | > 100 µM (inactive) | > 100 µM (inactive) | > 100 µM (inactive) | > 100 µM (inactive) | > 100 µM (inactive) | > 100 µM (inactive) | > 100 µM (inactive) | > 100 µM (inactive) | – | – | > 100 µM (inactive) | > 100 µM (inactive) | > 100 µM (inactive) | > 100 µM (inactive) | > 100 µM (inactive) | > 100 µM (inactive) | > 100 µM (inactive) | > 100 µM (inactive) | –
5 | COc1cccc([C@@H]2C/C(=N\NC(=O)C(=O)N[C@@H](C)c3ccccc3)c3cc4c(cc3N2)OCO4)c1 | 43.9 µM (inactive) | 48.1 µM (inactive) | 25.5 µM (inactive) | 22.4 µM (inactive) | 69.5 µM (inactive) | 6.89 µM (inactive) | 80 µM (inactive) | 8.32 µM (inactive) | 2.28 µM (inactive) | 21 µM (inactive) | – | 13.9 µM (inactive) | 30.1 µM (inactive) | > 100 µM (inactive) | 30.5 µM (inactive) | 29.9 µM (inactive) | 85.9 µM (inactive) | 16 µM (inactive) | 15.8 µM (inactive) | –
6 | CSc1nc(-c2ccccc2)[nH]c(=O)n1 | > 100 µM (inactive) | > 100 µM (inactive) | > 100 µM (inactive) | > 100 µM (inactive) | > 100 µM (inactive) | > 100 µM (inactive) | – | > 100 µM (inactive) | > 100 µM (inactive) | > 100 µM (inactive) | > 100 µM (inactive) | > 100 µM (inactive) | > 100 µM (inactive) | > 100 µM (inactive) | > 100 µM (inactive) | > 100 µM (inactive) | > 100 µM (inactive) | > 100 µM (inactive) | > 100 µM (inactive) | –
7 | CCSC12OC3(CCCCCN3C1=O)C1C(=O)N(c3ccccc3)C(=O)C12 (stereo unspecified) | > 100 µM (inactive) | > 100 µM (inactive) | > 100 µM (inactive) | > 100 µM (inactive) | – | > 100 µM (inactive) | > 100 µM (inactive) | – | > 100 µM (inactive) | > 100 µM (inactive) | > 100 µM (inactive) | > 100 µM (inactive) | > 100 µM (inactive) | > 100 µM (inactive) | – | > 100 µM (inactive) | > 100 µM (inactive) | > 100 µM (inactive) | > 100 µM (inactive) | > 100 µM (inactive)
